Source: BindingDB's records for doi:10.1021/jm980200+ (St. Cloud State University, 1998)
pIC50: −log10 of the molar value.

Assay: Inhibitory activity against yeast aldehyde dehydrogenase (AIDH)

| SMILES | pIC50 |
| --- | --- |
| CC(=O)ON(C(C)=O)S(C)(=O)=O [N-Acetoxy-N-acetyl-methanesulfonamide] | 3.00 |
| CON(c1ccccc1)S(=O)(=O)c1ccccc1 [N-Methoxy-N-phenyl-benzenesulfonamide] | < 3.00 |
| CC(=O)ON(c1ccccc1)S(=O)(=O)c1ccccc1 [N-Acetoxy-N-phenyl-benzenesulfonamide] | 4.44 |
| O=Nc1ccccc1 [NOB] | 5.60 |

Now from value to compound:

| pIC50 | SMILES |
| --- | --- |
| 4.68 | COC(=O)ON(C(=O)OC)S(C)(=O)=O [methyl (methoxycarbonyl)oxy(methylsulfonyl)carbamate] |
| 4.42 | COC(=O)ON(c1ccccc1)S(=O)(=O)c1ccccc1 [N-[(methoxycarbonyl)oxy]-N-phenylbenzenesulfonamide] |
| 4.19 | CCOC(=O)ON(c1ccccc1)S(=O)(=O)c1ccccc1 [N-[(ethoxycarbonyl)oxy]-N-phenylbenzenesulfonamide] |
| 4.45 | CCOC(=O)ON(C(=O)OCC)S(C)(=O)=O [ethyl (ethoxycarbonyl)oxy(methylsulfonyl)carbamate] |
